Experimental data published in patent US8207182B2, “Substituted cyclic urea derivatives and the use thereof as vanilloid receptor 1 modulators” (Gruenenthal GmbH, priority 2005, dated 2012).

Biological target: T1, vanilloid receptor 1 (VR1/TRPV1) (Rattus norvegicus, UniProt O35433)
T1 construct: from tissue; host or cells: primary cells dissociated from rat dorsal root ganglia (DRGs), cultured for two to three days
Experiment: Functional investigation on the vanilloid receptor 1 (FLIPR Ca2+ influx assay, capsaicin)
Type: cell-based
Details: rat dorsal root ganglia cells, Fluo-4 FLIPR, 100 nM capsaicin
Source text: I. Functional Investigation on the Vanilloid Receptor 1 (VRI/TRPV1 Receptor)
The agonistic or antagonistic action of the substances to be investigated on the vanilloid receptor 1 (VR1/TRPV1) of the species rat can be determined using the following assay. According to this assay, the Ca^2+ influx through the receptor channel is quantified with the aid of a Ca^2+-sensitive dye (Type Fluo-4, Molecular Probes Europe BV, Leiden Netherlands) in a fluorescent imaging plate reader (FLIPR, Molecular Devices, Sunnyvale, USA).
Complete medium: 50 mL of HAMS F12 Nutrient Mixture (Gibco Invitrogen GmbH, Karlsruhe, Germany) with
10% by volume of FCS (fetal calf serum, Gibco Invitrogen GmbH, Karlsruhe, Germany, heat-inactivated);
2 mM L-glutamine (Sigma, Munich, Germany);
1% by weight of AA solution (antibiotic/antimycotic solution, PAA, Pasching, Austria) and 25 ng/mL of Medium NGF (2.5 S, Gibco Invitrogen GmbH, Karlsruhe, Germany) […]
The DRGs are in each case repeatedly suspended, drawn through No. 1, No. 12 and No. 16 needles by means of a syringe and transferred to 50 mL Falcon tubes and these are filled to 15 mL with complete medium. […] The resulting pellet is in each case taken up in 250 μL of complete medium and the cell count is determined. […]

T1 sequence (O35433 whole entry): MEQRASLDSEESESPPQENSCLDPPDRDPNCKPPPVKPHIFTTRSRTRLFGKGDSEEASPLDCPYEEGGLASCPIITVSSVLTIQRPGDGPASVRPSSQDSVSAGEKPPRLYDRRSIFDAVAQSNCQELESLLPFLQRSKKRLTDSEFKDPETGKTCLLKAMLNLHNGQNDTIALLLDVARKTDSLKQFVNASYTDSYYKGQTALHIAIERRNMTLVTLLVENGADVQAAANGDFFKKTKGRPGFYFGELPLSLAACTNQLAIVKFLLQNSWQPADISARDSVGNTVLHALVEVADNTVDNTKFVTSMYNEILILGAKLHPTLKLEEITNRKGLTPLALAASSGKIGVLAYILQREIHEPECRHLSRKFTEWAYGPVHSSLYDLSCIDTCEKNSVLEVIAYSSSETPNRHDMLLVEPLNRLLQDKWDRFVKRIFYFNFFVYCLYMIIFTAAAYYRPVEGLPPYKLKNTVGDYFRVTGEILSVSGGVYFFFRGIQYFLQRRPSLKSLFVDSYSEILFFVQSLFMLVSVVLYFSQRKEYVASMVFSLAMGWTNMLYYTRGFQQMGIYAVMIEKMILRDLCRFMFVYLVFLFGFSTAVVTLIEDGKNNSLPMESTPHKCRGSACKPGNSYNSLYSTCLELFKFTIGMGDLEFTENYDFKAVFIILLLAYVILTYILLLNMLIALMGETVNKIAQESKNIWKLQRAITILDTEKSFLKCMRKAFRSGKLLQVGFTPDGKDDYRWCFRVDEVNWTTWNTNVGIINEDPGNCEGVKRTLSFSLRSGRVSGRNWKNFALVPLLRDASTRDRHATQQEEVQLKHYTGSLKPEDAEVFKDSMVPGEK

Structure (SMILES)	IC50
CC(C)(C)c1ccc(CN2CCN(Cc3ccc(NS(C)(=O)=O)cc3)C2=O)cc1 [Example 4, N-{4-[3-(4-tert-butylbenzyl)-2-oxoimidazolidin-1-ylmethyl]-phenyl}methanesulfonamide]	9.4 µM
CC(C)(C)c1ccc(CN2CCCN(Cc3ccc(NS(C)(=O)=O)cc3)C2=O)cc1 [Example 5, N-{4-[3-(4-tert-butylbenzyl)-2-oxotetrahydropyrimidin-1-ylmethyl]-phenyl}methanesulfonamide]	2.9 µM
